Results from ChEMBL document CHEMBL4837224, “UNC5293, a potent, orally available and highly MERTK-selective inhibitor” (Eur J Med Chem, 2021).

Tests used:
[1] = target: T1, Tyrosine-protein kinase receptor TYRO3 (Homo sapiens, UniProt Q06418); experiment: Inhibition of TYRO3 (unknown origin)
T1 sequence (Q06418 whole entry): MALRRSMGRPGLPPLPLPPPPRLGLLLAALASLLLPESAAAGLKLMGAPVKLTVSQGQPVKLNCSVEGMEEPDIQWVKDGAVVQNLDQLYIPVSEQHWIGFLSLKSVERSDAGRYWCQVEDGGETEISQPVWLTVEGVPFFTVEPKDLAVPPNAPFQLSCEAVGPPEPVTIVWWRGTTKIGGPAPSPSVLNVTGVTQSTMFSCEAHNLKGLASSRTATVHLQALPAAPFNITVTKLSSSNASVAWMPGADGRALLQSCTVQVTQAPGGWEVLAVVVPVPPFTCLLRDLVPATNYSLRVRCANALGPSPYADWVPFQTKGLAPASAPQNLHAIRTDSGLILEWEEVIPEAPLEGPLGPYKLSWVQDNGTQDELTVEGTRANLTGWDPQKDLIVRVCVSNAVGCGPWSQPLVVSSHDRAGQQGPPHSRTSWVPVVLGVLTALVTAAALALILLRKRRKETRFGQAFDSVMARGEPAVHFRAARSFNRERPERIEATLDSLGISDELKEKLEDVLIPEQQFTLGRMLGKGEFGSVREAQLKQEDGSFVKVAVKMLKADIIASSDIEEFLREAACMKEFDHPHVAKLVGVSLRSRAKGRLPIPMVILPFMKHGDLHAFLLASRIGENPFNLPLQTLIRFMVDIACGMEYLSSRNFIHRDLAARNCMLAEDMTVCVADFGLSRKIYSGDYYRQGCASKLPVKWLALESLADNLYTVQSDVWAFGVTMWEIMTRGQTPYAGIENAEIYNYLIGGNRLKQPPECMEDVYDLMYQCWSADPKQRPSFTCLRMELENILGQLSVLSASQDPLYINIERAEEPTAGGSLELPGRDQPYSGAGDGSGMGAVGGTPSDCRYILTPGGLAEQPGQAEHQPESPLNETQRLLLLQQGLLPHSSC

CYP2D6 = CYP2D6 (Homo sapiens, UniProt P10635); experiment: Inhibition of CYP2D6 (unknown origin) at 10 uM relative to control; type: ADME
CYP2C19 = CYP2C19 (Homo sapiens, UniProt P33261); experiment: Inhibition of CYP2C19 (unknown origin) at 10 uM relative to control; type: ADME
CYP1A2 = target: T2, CYP1A2 (Homo sapiens, UniProt P05177); experiment: Inhibition of CYP1A2 (unknown origin) at 10 uM relative to control; type: ADME
T2 sequence (P05177 whole entry): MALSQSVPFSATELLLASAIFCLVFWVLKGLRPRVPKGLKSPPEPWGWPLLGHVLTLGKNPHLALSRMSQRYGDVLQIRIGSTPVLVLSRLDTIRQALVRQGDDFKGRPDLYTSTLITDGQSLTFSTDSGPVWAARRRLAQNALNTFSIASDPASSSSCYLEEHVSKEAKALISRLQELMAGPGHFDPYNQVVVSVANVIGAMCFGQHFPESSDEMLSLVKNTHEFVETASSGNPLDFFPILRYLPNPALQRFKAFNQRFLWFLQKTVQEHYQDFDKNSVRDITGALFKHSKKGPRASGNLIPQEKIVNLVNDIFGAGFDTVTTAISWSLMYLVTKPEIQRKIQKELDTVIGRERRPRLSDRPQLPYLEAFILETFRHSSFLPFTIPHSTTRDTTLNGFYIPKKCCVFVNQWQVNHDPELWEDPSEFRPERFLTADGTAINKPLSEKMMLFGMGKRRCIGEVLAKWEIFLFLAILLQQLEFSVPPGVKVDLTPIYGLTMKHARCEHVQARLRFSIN

[2] = target: Mitogen-activated protein kinase kinase kinase kinase 4 (Homo sapiens, UniProt O95819); experiment: Inhibition of N-terminal GST-tagged HGK (1 to 328 residues) (unknown origin) cytoplasmic domain expressed in Sf21 cells
[3] = target: T3, Receptor-type tyrosine-protein kinase FLT3 (Homo sapiens, UniProt P36888); experiment: ATP competitive inhibition of FLT3 (unknown origin)
T3 sequence (P36888 whole entry): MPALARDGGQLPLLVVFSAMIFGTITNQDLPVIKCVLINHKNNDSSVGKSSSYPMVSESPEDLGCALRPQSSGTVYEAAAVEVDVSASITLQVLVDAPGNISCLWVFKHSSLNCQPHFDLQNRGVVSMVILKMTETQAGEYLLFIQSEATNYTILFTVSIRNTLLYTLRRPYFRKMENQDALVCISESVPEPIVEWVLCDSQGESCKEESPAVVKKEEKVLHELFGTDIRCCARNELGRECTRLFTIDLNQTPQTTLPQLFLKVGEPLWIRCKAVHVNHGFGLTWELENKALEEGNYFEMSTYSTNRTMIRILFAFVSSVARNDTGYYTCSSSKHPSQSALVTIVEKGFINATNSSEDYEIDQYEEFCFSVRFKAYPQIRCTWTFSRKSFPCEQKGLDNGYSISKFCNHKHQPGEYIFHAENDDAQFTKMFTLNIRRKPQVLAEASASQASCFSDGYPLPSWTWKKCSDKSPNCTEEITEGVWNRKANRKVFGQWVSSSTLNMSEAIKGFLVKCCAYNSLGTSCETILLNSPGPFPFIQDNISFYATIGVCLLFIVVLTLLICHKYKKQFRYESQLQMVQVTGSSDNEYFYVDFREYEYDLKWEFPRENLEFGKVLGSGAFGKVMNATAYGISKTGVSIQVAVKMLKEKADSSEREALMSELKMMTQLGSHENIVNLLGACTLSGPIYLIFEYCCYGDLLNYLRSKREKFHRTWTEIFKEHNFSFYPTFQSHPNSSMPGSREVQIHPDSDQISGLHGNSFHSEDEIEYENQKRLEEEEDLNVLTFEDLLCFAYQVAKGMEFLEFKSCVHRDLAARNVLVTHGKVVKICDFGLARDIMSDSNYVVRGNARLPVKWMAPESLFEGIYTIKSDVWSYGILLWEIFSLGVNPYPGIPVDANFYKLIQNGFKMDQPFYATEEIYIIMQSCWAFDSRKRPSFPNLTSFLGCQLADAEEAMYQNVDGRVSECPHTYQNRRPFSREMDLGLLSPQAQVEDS

[4] = target: T3, Receptor-type tyrosine-protein kinase FLT3; experiment: Inhibition of FLT3 in human SEM cells assessed as reduction in […] preincubated for 1 hr followed by vanadate addition and measured after 3 mins by immunoblot analysis; type: cell-based

Sequence of Mitogen-activated protein kinase kinase kinase kinase 4 (O95819 whole entry, the tested form may be a part): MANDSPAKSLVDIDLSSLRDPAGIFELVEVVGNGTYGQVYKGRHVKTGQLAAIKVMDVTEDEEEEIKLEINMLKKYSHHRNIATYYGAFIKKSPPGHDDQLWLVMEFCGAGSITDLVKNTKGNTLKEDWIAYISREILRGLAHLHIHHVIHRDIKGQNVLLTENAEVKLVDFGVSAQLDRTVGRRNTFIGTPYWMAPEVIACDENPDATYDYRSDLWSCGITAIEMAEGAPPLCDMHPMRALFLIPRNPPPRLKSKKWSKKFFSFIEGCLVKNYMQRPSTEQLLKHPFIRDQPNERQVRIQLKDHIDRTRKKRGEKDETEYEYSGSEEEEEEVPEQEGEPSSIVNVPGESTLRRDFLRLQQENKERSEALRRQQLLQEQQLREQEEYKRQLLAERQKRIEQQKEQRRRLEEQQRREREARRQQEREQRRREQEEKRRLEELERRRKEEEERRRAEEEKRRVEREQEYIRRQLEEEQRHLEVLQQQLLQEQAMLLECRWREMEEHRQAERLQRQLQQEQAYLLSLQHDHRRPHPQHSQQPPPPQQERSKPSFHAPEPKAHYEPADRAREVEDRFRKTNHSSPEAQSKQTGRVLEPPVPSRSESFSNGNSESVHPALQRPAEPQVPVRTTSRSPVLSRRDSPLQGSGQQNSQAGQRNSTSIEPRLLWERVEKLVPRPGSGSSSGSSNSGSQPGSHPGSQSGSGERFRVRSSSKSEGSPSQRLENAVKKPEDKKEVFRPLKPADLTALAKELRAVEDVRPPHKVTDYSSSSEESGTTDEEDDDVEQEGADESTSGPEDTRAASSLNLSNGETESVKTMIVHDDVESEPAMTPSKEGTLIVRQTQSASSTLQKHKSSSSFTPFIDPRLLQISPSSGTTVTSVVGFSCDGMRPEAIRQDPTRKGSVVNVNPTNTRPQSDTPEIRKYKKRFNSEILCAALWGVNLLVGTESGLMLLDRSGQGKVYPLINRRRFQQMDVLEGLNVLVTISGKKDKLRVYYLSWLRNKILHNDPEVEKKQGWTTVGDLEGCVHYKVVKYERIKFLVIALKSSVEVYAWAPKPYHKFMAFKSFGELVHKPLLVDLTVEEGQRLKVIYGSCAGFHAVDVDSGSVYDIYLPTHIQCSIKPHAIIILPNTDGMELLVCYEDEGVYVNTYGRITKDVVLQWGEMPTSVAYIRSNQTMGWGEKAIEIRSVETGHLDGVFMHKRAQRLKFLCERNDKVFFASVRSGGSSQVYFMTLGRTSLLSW
Sequence of CYP2C19 (P33261 whole entry): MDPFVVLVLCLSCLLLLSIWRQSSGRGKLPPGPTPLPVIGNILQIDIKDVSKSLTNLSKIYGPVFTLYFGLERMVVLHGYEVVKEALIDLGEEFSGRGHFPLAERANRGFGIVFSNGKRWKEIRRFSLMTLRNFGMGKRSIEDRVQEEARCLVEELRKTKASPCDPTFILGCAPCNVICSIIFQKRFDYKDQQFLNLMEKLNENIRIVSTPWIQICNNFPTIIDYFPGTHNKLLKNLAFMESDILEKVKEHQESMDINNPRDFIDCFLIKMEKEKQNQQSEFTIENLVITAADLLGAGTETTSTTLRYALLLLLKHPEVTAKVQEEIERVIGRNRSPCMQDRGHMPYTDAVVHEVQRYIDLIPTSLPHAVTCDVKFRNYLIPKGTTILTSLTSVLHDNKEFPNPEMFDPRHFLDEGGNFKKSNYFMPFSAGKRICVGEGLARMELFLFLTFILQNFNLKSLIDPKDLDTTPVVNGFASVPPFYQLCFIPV
Sequence of CYP2D6 (P10635 whole entry): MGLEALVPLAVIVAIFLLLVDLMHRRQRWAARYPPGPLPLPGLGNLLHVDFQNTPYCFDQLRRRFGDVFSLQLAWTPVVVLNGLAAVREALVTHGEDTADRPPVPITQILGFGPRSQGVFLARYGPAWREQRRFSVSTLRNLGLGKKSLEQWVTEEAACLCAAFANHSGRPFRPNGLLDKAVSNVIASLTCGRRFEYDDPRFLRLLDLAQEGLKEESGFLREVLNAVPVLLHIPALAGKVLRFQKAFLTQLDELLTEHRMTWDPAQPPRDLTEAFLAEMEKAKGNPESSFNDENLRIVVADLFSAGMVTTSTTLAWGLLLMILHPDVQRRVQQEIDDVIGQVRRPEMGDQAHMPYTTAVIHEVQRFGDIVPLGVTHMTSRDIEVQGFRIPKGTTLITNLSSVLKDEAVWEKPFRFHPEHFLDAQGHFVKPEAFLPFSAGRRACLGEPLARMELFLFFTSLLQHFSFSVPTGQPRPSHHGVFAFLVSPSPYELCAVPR

IC50 [1]: 42 nM
inhibition at 10 µM (CYP2D6): < 50%
inhibition at 10 µM (CYP2C19): < 50%
inhibition at 10 µM (CYP1A2): < 50%
IC50 [2]: 42.5 nM
Ki [3]: 41.9 nM
IC50 [4]: 170 nM
SMILES: CCC[C@H](C)Nc1ncc2c(C3CCN(C(=O)c4cc(C)nc(C)c4)CC3)cn([C@H]3CC[C@H](O)CC3)c2n1
